Laboratory results from US12617762B2, “Carboxy derivatives with antiinflamatory properties” (Sitryx Therapeutics Limited, priority 2019, dated 2026).
Like-named read-outs stand apart in the source and are kept apart here.

Key:
[1] = Hepatocyte stability assay, human; type: in vitro ADME; settings: human, hepatocytes; for hepatocyte CLint at 10 μM: Hepatocyte stability Clint; for half-life at 10 μM: Hepatocyte stability T½
Outline: (§1)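 Cells and buffer-only plates are preincubated 10 min at 37° C; 10 μM test compound is then added to hepatocytes (0.5×10^6 cells/mL) and sampled to 60 min. Aliquots are crashed into acetonitrile, spun, and measured by LC-MS/MS to calculate intrinsic clearance from the decline of parent.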

[2] = Hepatocyte stability assay, mouse; type: in vitro ADME; settings: mouse, hepatocytes; for hepatocyte CLint at 10 μM: Hepatocyte stability Clint; for half-life at 10 μM: Hepatocyte stability T½
Outline: as §1

[3] = tested on: IL-1β cytokine output from THP-1s; assay: THP-1 AlphaLISA IL-1β cytokine inhibition assay; type: cell-based; settings: for IC50: Homo sapiens
Outline: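 THP-1 cells differentiated with PMA for 72 h, pre-incubated with compound 30 min, then LPS-primed 24 h and Nigericin-stimulated 1 h (37° C./5% CO2). Supernatant IL-1β measured by AlphaLISA; percentage inhibition normalised to +LPS (high) and −LPS (low) plate controls.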

[4] = tested on: IL-6 cytokine output from THP-1s; assay: THP-1 AlphaLISA IL-6 cytokine inhibition assay; type: cell-based; settings: Homo sapiens, LPS then nigericin
Procedure: The cytokine inhibition profiles of compounds of formula (I) were determined in a differentiated THP-1 cell assay. All assays were performed in RPMI-1640 growth medium (Gibco), supplemented with 10% fetal bovine serum (FBS; Gibco), 1% penicillin-streptomycin and 1% sodium pyruvate unless specified otherwise. The IL-1β cytokine inhibition assay was run in a background of differentiated THP-1 cells as described below. All reagents described were from Sigma-Aldrich unless specified otherwise. Compounds were prepared as 10 mM DMSO stocks.
THP-1 cells were expanded as a suspension up to 80% confluence in appropriate growth medium. Cells were harvested, suspended, and treated with an appropriate concentration of phorbol 12-myristate 13-acetate (PMA) over a 72 hr period (37° C./5% CO2).
Following 72 hrs of THP-1 cell incubation, cellular medium was removed and replaced with fresh growth media containing 1% of FBS. Working concentrations of compounds were prepared separately in 10% FBS treated growth medium and pre-incubated with the cells for 30 minutes (37° C./5% CO2). Following the 30 minute compound pre-incubation, THP-1s were treated with an appropriate concentration of LPS and the cells were subsequently incubated for a 24 hr period (37° C./5% CO2). An appropriate final concentration of Nigericin was then dispensed into the THP-1 plates and incubated for 1 hour (37° C./5% CO2) before THP-1 supernatants were harvested and collected in separate polypropylene 96-well holding plates.
Reagents from an IL-1β and IL-6 commercial kit (Perkin Elmer) were prepared and run according to the manufacturer's instructions. Subsequently, fluorescence signal detection in a microplate reader was measured (EnVision® Multilabel Reader, Perkin Elmer).
Percentage inhibition was calculated per cytokine by normalising the sample data to the high and low controls used within each plate (+/− LPS respectively).

[5] = tested on: NRF2 (nuclear factor erythroid 2-related factor 2); assay: NRF2 +/-GSH activation assay (DiscoverX PathHunter NRF2 translocation kit, U2OS cells); type: cell-based
Outline: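 U2OS PathHunter eXpress cells, 24 h post-plating, treated with compound ±GSH (+GSH arm: 30 min compound–GSH pre-incubation, 6 mM working GSH), then 6 h at 37 °C. NRF2 nuclear translocation read by enzyme-fragment-complementation chemiluminescence; % activation normalised to DMF high and untreated low controls.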

[6] = THP-1, differentiated THP-1 cells, LPS then nigericin
[7] = THP-1, differentiated THP-1 cells
[8] = +GSH, 30 minute compound-GSH pre-incubation, read-out: NRF2 activation +GSH EC50
[9] = +GSH, normalised to DMF high control
[10] = −GSH, U2OS PathHunter cells, 6 hours compound treatment, read-out: NRF2 activation −GSH EC50
[11] = −GSH, normalised to DMF high control
[12] = THP-1, Table 3, head to head comparison of exo vs endo double bond compounds

Work on C=C(Cc1nc(C(F)(F)c2ccc(C(F)(F)F)cc2)no1)C(=O)O [Example 92, 2-((3-(difluoro(4-(trifluoromethyl)phenyl)methyl)-1,2,4-oxadiazol-5-yl)methyl)acrylic acid] yielded a hepatocyte CLint at 10 μM [1] of under 3 µL/min/1e6 cells, a half-life at 10 μM [1] of over 460 min and a hepatocyte CLint at 10 μM [2] of 23 µL/min/1e6 cells. It also gave a half-life at 10 μM [2] of 84 min, an IC50 [3, 6] of 6.7 µM and an IC50 [4, 7] of 19.9 µM.
C=C(Cc1nc(-c2ccc(Cl)cc2)c(CCCC)o1)C(=O)O [Example 109, 2-((5-butyl-4-(4-chlorophenyl)oxazol-2-yl)methyl)acrylic acid] gave a hepatocyte CLint at 10 μM [1] of 20 µL/min/1e6 cells, a half-life at 10 μM [1] of 79 min and a hepatocyte CLint at 10 μM [2] of 61 µL/min/1e6 cells. The half-life at 10 μM [2] was 28 min, the IC50 [3, 6] was over 31.6 µM and the IC50 [4, 7] was 10.6 µM.
Molecule C=C(Cc1nc(C2(c3cc(Cl)cc(Cl)c3)CC2)no1)C(=O)O [Example 67, 2-((3-(1-(3,5-dichlorophenyl)cyclopropyl)-1,2,4-oxadiazol-5-yl)methyl)acrylic acid] has a hepatocyte CLint at 10 μM [1] of 70 µL/min/1e6 cells, a half-life at 10 μM [1] of 23 min and a hepatocyte CLint at 10 μM [2] of 92 µL/min/1e6 cells. For the same molecule, the half-life at 10 μM [2] was 13 min, the IC50 [3, 6] was 69.4 µM and the IC50 [4, 7] was 4.1 µM.
For C=C(Cc1nc(-c2cc(F)c(OCCCC)c(F)c2)no1)C(=O)O [Example 162, 2-((3-(4-butoxy-3,5-difluorophenyl)-1,2,4-oxadiazol-5-yl)methyl)acrylic acid], the EC50 [5, 8] was 1.3 µM, the “NRF2 activation +GSH Emax” value [5, 9] was 269% and the EC50 [5, 10] was 1.1 µM. For the same molecule, the “NRF2 activation −GSH Emax” value [5, 11] was 232%, the IC50 [3, 6] was over 46.4 µM and the IC50 ([4]; differentiated THP-1 cells) was 6.4 µM.
CCCCCCCCc1noc(/C=C(\C)C(=O)O)n1 [Example 166, (E)-2-methyl-3-(3-octyl-1,2,4-oxadiazol-5-yl)acrylic acid] showed a hepatocyte CLint at 10 μM [1] of 260 µL/min/1e6 cells, a half-life at 10 μM [1] of 6 min and a hepatocyte CLint at 10 μM [2] of 204 µL/min/1e6 cells. For the same molecule, the half-life at 10 μM [2] was 7 min, the IC50 [3, 12] was over 31.6 µM and the IC50 [3, 6] was over 31.6 µM. For the same molecule, the IC50 ([4]; differentiated THP-1 cells) was 31.5 µM.
With C=C(Cc1nc(-c2ccc(C(F)(F)CC)cc2)no1)C(=O)O [Example 71, 2-((3-(4-(1,1-difluoropropyl)phenyl)-1,2,4-oxadiazol-5-yl)methyl)acrylic acid] the EC50 [5, 8] was 37.1 µM, the “NRF2 activation +GSH Emax” value [5, 9] was 146% and the EC50 [5, 10] was 28.8 µM. For the same molecule, the “NRF2 activation −GSH Emax” value [5, 11] was 178%, the IC50 [3, 6] was 54.9 µM and the IC50 [4, 7] was 8.3 µM.
With C#CCCCCCCc1noc(CC(=C)C(=O)O)n1 [Example 35, 2-((3-(oct-7-yn-1-yl)-1,2,4-oxadiazol-5-yl)methyl)acrylic acid] the EC50 [5, 8] was 48.9 µM, the “NRF2 activation +GSH Emax” value [5, 9] was 55% and the EC50 [5, 10] was 43.6 µM. For the same molecule, the “NRF2 activation −GSH Emax” value [5, 11] was 91%, the IC50 [3, 6] was over 100 µM and the “IL-1β lowering, result in words” value ([3]; THP-1 IL-1β assay) was “not effective”. For the same molecule, the IC50 [4, 7] was 34.6 µM.
For C/C(=C\c1nc(C2(c3ccc(SC(F)(F)F)cc3)CC2)no1)C(=O)O [Example 170], the EC50 [5, 8] was 34.9 µM, the “NRF2 activation +GSH Emax” value [5, 9] was 96.5% and the EC50 ([5]; −GSH, Table 5 exo vs endo comparison, read-out: −GSH EC50) was 38.7 µM. The EC50 [5, 10] was 38.7 µM, the “NRF2 activation −GSH Emax” value [5, 11] was 177% and the “−GSH Emax” value ([5]; −GSH, normalised to DMF high control, Table 5 exo vs endo comparison) was 177%. For the same molecule, the IC50 [3, 12] was over 31.6 µM, the IC50 [3, 6] was over 31.6 µM and the IC50 ([4]; differentiated THP-1 cells) was 21 µM.
In the case of C=C(Cc1ncc(CCCCCCCC)s1)C(=O)O [Example 55, 2-((5-octylthiazol-2-yl)methyl)acrylic acid], the EC50 [5, 8] is reported as 17.8 µM, the “NRF2 activation +GSH Emax” value [5, 9] is reported as 163% and the EC50 [5, 10] is reported as 13.3 µM. The “NRF2 activation −GSH Emax” value [5, 11] was 276%, the IC50 [3, 6] was 14.9 µM and the IC50 [4, 7] was 4.2 µM.
For C=C(Cc1nc(C2(c3ccc(C)c(Cl)c3)CC2)no1)C(=O)O [Example 141, 2-((3-(1-(3-chloro-4-methylphenyl)cyclopropyl)-1,2,4-oxadiazol-5-yl)methyl)acrylic acid], the EC50 [5, 8] was 20.1 µM, the “NRF2 activation +GSH Emax” value [5, 9] was 100% and the EC50 [5, 10] was 16.7 µM. For the same molecule, the “NRF2 activation −GSH Emax” value [5, 11] was 177%, the IC50 [3, 6] was over 56.2 µM and the IC50 ([4]; differentiated THP-1 cells) was 32.4 µM.
